This passage reports pest or weed control results from patent US11445724B2, “Insecticidal compounds” (SYNGENTA PARTICIPATIONS AG, priority 2013, dated 2022).

Common to all, as to assay type: in vivo
For assay [1], the system named is Spodoptera littoralis (Egyptian cotton leafworm). The assay can be described thus: Spodoptera littoralis (Egyptian cotton leafworm) mortality, sprayed cotton leaf discs. The note with it: foliar, 72 h, 200 ppm spray on cotton leaf discs, L1 larvae, mortality 3 DAT.
Assay [2] deals with Thrips tabaci (Onion thrips). The assay is described as follows: Thrips tabaci (Onion thrips) mortality, sprayed sunflower leaf discs. The conditions noted are these: foliar, 168 h, 200 ppm spray on sunflower leaf discs, mixed ages, mortality after 7 days.
The subject of assay [3] is Plutella xylostella (Diamond back moth). The assay can be described thus: Plutella xylostella (Diamond back moth) larval mortality, artificial diet in 24-well MTP. The conditions noted are these: 144 h, application rate 200 ppm (concentration in well 18 ppm), L2 larvae, larval mortality after 6 days.
The subject of assay [4] is Diabrotica balteata (Corn root worm). The assay is described as follows: Diabrotica balteata (Corn root worm) larval mortality, artificial diet in 24-well MTP. The conditions noted are these: 120 h, application rate 200 ppm (concentration in well 18 ppm), L2 larvae, larval mortality after 5 days.

A value given as a limit tells only on which side of the number the result lay.

Regarding `O=C(Nc1cccc(C(=O)Nc2c(Br)cc(C(F)(C(F)(F)F)C(F)(F)F)cc2OC(F)F)c1F)c1ccccc1C(F)(F)F` [Compound 34], the pest or weed control at 200 ppm in assay [1], in assay [2] and in assay [3] was not below 80% in each case.

`O=C(Nc1cccc(C(=O)Nc2c(Cl)cc(C(F)(C(F)(F)F)C(F)(F)F)cc2OC(F)F)c1F)c1ccccc1OC(F)(F)F` [Compound 65]: the pest or weed control (as a rule, how far the test organism was held down) at 200 ppm in assay [1] was not below 80%.

In the case of `O=C(Nc1cccc(C(=O)Nc2c(Cl)cc(C(F)(C(F)(F)F)C(F)(F)F)cc2OC(F)F)c1F)c1ccccc1C(F)(F)F` [Compound 72], the pest or weed control at 200 ppm in assay [1] and in assay [3] was not below 80% in each case.

As to `COc1c(NC(=O)c2ccccc2F)cccc1C(=O)Nc1c(Cl)cc(C(F)(C(F)(F)F)C(F)(F)F)cc1OC(F)F` [Compound 75], the pest or weed control at 200 ppm in assay [1], in assay [2] and in assay [3] was not below 80% in each case.

For `COc1c(NC(=O)c2cc(Cl)ccc2F)cccc1C(=O)Nc1c(Cl)cc(C(F)(C(F)(F)F)C(F)(F)F)cc1OC(F)F` [Compound 85], in assay [1], the pest or weed control at 200 ppm is not below 80%.

On to `COc1c(NC(=O)c2ccc(F)c(C(F)(F)F)c2)cccc1C(=O)Nc1c(Cl)cc(C(F)(C(F)(F)F)C(F)(F)F)cc1OC(F)F` [Compound 88], for which the pest or weed control at 200 ppm in assay [1], in assay [2] and in assay [3] was not below 80% throughout.

For `COc1ccccc1C(=O)Nc1cccc(C(=O)Nc2c(Cl)cc(C(F)(C(F)(F)F)C(F)(F)F)cc2OC(F)F)c1OC` [Compound 91], the pest or weed control at 200 ppm in assay [1], in assay [4] and in assay [3] was not below 80% in each case.

Molecule `COc1c(NC(=O)c2cc(C(F)(F)F)ccc2F)cccc1C(=O)Nc1c(Cl)cc(C(F)(C(F)(F)F)C(F)(F)F)cc1OC(F)F` [Compound 98] gave a pest or weed control at 200 ppm in assay [1] not below 80%.

In the case of `CCN(C(=O)c1ccccc1OC(F)(F)F)c1cccc(C(=O)Nc2c(Cl)cc(C(F)(C(F)(F)F)C(F)(F)F)cc2OC(F)F)c1F` [Compound 118], the pest or weed control at 200 ppm in assay [1], in assay [4] and in assay [3] was not below 80% in each case.

For the molecule `CCN(C(=O)c1ccccc1C)c1cccc(C(=O)Nc2c(Br)cc(C(F)(C(F)(F)F)C(F)(F)F)cc2OC(F)F)c1OC` [Compound 130], the pest or weed control at 200 ppm in assay [1], in assay [4] and in assay [3] was not below 80% each time.

As to `CCN(C(=O)c1ccccc1OC(F)(F)F)c1cccc(C(=O)Nc2c(Br)cc(C(F)(C(F)(F)F)C(F)(F)F)cc2OC(F)F)c1OC` [Compound 136], the pest or weed control at 200 ppm in assay [4] was not below 80%.

For the molecule `CCN(C(=O)c1cc(C(F)(F)F)ccc1F)c1cccc(C(=O)Nc2c(Br)cc(C(F)(C(F)(F)F)C(F)(F)F)cc2OC(F)F)c1OC` [Compound 144], the pest or weed control at 200 ppm in assay [1], in assay [2] and in assay [3] was not below 80% each time.

Regarding `CCN(C(=O)c1ccccc1C)c1cccc(C(=O)Nc2c(Cl)cc(C(F)(C(F)(F)F)C(F)(F)F)cc2OC(F)F)c1OC` [Compound 146], the pest or weed control at 200 ppm in assay [1], in assay [4] and in assay [3] was not below 80% throughout.

On to `CCN(C(=O)c1ccc([N+](=O)[O-])cc1)c1cccc(C(=O)Nc2c(Cl)cc(C(F)(C(F)(F)F)C(F)(F)F)cc2OC(F)F)c1OC` [Compound 148], for which the pest or weed control at 200 ppm in assay [2] and in assay [4] was not below 80% throughout.

With `CCN(C(=O)c1ccccc1OC(F)(F)F)c1cccc(C(=O)Nc2c(Cl)cc(C(F)(C(F)(F)F)C(F)(F)F)cc2OC(F)F)c1OC` [Compound 153], the pest or weed control at 200 ppm in assay [2] and in assay [4] was not below 80% throughout.
